Assay results reported in US7157449B2, “Medicament for the treatment of diseases caused by parasitic protozoa” (priority 2000, dated 2007).
Entries after “also recorded” stand apart in the source; their conditions may differ.

How the values were obtained:
T. brucei [1] = experiment: Effect of drugs on trypanosome proliferation; type: cell-based; conditions: for effect on trypanosome proliferation: DON 1, 5 μM, acivicin 1, 5, 25 μM, CPEC 250 μM, azaserine data not shown; for rescue of trypanosomes from the proliferation block asserted by DON: cytidine up to 5 mM or cytosine 1 mM
Procedure: In A), the trypanosomes were treated with no drug (squares), 1 μM DON (triangles) or 5 μM DON (diamonds). In (B), the trypanosomes were treated with no drug (filled squares), 1 μM acivicin (triangles), 5 μM acivicin (diamonds) or 25 μM acivicin (open squares). The number of trypanosomes was counted at various time-points after the drug exposure had started. It appears that DON and acivicin were both very active.
The trypanosomes were treated with DON for 1 h and then harvested and resuspended in drug-free medium. The number of trypanosomes was counted at various time-points after the release had started (triangles). A control experiment was performed where the trypanosomes were not exposed to DON but otherwise were treated exactly the same way as the drug-treated trypanosomes (squares). Each point is an average of two experiments with the standard deviation indicated by error bars.
(§1) Procyclic insect forms of T. brucei brucei AnTat 1.1 were cultured in SDM-79 medium (Brun, R. and Schoenenberger, M. (1979) Acta Trop. 36, 289–292) supplemented with 10% heat-inactivated fetal bovine serum at 27° C. Culture-adapted bloodstream forms of the T. brucei brucei cell line TC221 (Hirumi, H., Hirumi, K., Doyle, J. J. and Cross, G. A. M. (1980) Parasitology 80, 371–382) were propagated in Hirumi's modified Iscove's medium-9 (Hirumi, H. and Hirumi, K. (1989) J. Parasitology 75, 985–989) supplemented with 5% fetal bovine serum at 37° C. in a humidified atmosphere containing 7% CO2. The cultured parasites were harvested in the late logarithmic growth phase.
(§2) 6-diazo-5-oxo-L-norleucine (DON), acivicin and azaserine were bought from Sigma. They were dissolved in water and stored as 5 mM solutions at −20° C. Cyclopentenyl cytosine was a kind gift from Grant McClarty at the Dept. of Medical Microbiology, University of Manitoba, 730 William Ave, Winnipeg, Manitoba R3E OW3, Canada. It was stored as a 50 mM solution in dimethyl sulfoxide (DMSO) at 4° C. The final concentration of DMSO in the growth media of the trypanosomes never became more than 0.5% and that had no effect on the NTP pools or the proliferation of the parasites.
DON is not stable in the bloodstream and has a half-life of only a few hours in humans (Kovach, J. S., Eagan, R. T., Pawis, G., Rubin, J., Creagan, E. T. and Moertel. C. G. (1981) Cancer Treat. Rep. 65, 1031–1036; Rahman, A., Luc, V., Smith, F. P., Vrown, J., Schein, P. S. and Woolley, P. V. (1981); and Sullivan, M. P., Nelson, J. A., Feldman, S. and Nguyen, B. V. (1988) Cancer Chemother. Pharmac. 21, 78–84). Therefore, it was tested for how long the effect of a short pulse of DON lasts on trypanosome proliferation. In FIG. 5, the trypanosomes have been treated with 5 μM DON for 1 h. After the incubation, the trypanosomes were collected by centrifugation, the pellet was washed with media not containing DON and resuspended in the same media and the trypanosomes were put back into the incubator. The amount of trypanosomes was continuously recorded during the incubation. Control trypanosomes were treated the same way except that the one-hour incubation was without DON.

T. brucei [2] = experiment: NTP (CTP) pools in trypanosomes after treatment with CTP synthetase inhibitors; type: cell-based; conditions: for size of the CTP pool after addition of cytidine or cytosine: up to 15 mM cytidine or 1 mM cytosine, harvested one hour later; for effect on the CTP pool: 1 h incubation, 25 and 100 μM DON, 100 μM acivicin, 25 μM CPEC
Procedure: Samples without drug (control), with 25 and 100 μM DON (DON25 and DON100, respectively), with 100 μM acivicin (Aci100) and with 25 μM CPEC (CPEC25) are shown. The unit of the ordinata is the same as in FIG. 1. The control is an average of two experiments while the others are single measurements.
as §1
1–3×10^8 trypanosomes were collected and subsequently disintegrated by 500 μl ice-cold 0,6 M trichloroacetic acid supplemented with 15 mM MgCl2. The trichloroacetic acid was removed by two extractions with 720 μl 1,1,2-trichlorotrifluoroethan (78%)/trioctylamine (22%) and the aqueous phase was saved. ⅕ of the sample was evaporated to dryness in a Speedvac (Savant), loaded onto a 4.6×125 mm Partisphere SAX-column and run by HPLC in 0,5 M ammonium phosphate pH 3,4 containing 2,5% acetonitrile at 1.5 ml/min. The procedure is further explained in previous work by the present inventors, see Hofer, A., Ekanem, J. T. and Thelander, L. (1998) J. Biol. Chem. 273, 34098–34104. A connection of the HPLC to a Flow Scintillation Analyzer (Radiomatic 150 TR, Packard) made it possible to check the radioactivity in the chromatographic peaks. For radioactivity measurements, the whole sample was usually loaded onto the column. The nucleotides were quantified by measuring the peak heights and comparing them to a standard curve.
as §2
The absolute dependence on de novo synthesis for CTP production might be exploited for chemotherapy purposes since the host can be rescued by cytidine. There are two major classes of compounds that inhibit CTP synthetase, nucleoside analogues and glutamine analogues. One nucleoside analogue, cyclopentenyl cytosine (CPEC), and two glutamine analogues, 6-diazo-5-oxo-L-norleucin (DON) and acivicin, were tested and it was observed how the CTP pool changed during the one-hour incubation period (FIG. 3). […] Next, the effect of the drugs on trypanosome growth was investigated. […] As expected. CPEC (250 μM) had no effect in this experiment either (data not shown).

mouse BALB/c fibroblasts = experiment: Proliferation of BALB/c fibroblasts with DON with or without hypoxanthine; type: cell-based
Procedure: The fibroblasts were seeded at a density so low that they could not get confluent within three days. […] At this point the amount of cells was indirectly counted by a method described in the section “Material and methods” below.
Mouse Balb/c fibroblasts were cultivated as monolayers in Dulbecco's Modified Eagles Medium (Sigma) supplemented with L-glutamine (0.584 g/l) and 10% heat-inactivated horse serum at 37° C. in a humidified atmosphere containing 7% CO2. The amount of fibroblasts on each plate was determined by a method were the cell-containing plates were washed with PBS pH 7.5, the cells disintegrated by a 10 min. incubation with 0.2 M NaOH at 50° C. and then the OD260-310 was measured (Suttle, D. P. and Stark, G. R. (1979) J. Biol. Chem. 254, 4602–4607). The cells were collected before confluence.
The effect of DON on trypanosomes and mammalian cells was compared as follows. […] Thus, it needed to be investigated whether or not the anti-proliferation effect on mammalian cells could be abolished, while still keeping the trypanocidal activity. In mammalian cells, DON is a powerful inhibitor of de novo purine biosynthesis. In FIG. 6, two experiments are included wherein the block on de novo purine biosynthesis have been by-passed by 10 and 160 μM hypoxanthine, respectively. Hypoxanthine is a naturally occurring purine base in the bloodstream of mammals.

[3] = in vivo; cited from earlier work
[4] = test system: Trypanosoma brucei rhodiense; experiment: IC50 against parasite (Swiss Tropical Institute standard method); type: cell-based
From the text: (§3) In order to determine in what range DON is effective against Plasmodium falciparum, the cause of malaria, Swiss Tropical Institute (Socinstrasse 57, P.O. Box, CH, 4002 Basel, Switzerland) performed the present experiment according to their standard methods available as a commercial service provided under secrecy (for an exact disclosure of the method, reference is made to Swiss Tropical Institute). Further, the present experiment enables a comparison between the effect of DON on both Trypanosoma brucei rhodiense and Plasmodium falciparum.

Plasmodium falciparum = experiment: as above; type: cell-based
From the text: as §3

[5] = human bloodstream; cited from earlier work

With `[N-]=[N+]=CC(=O)OC[C@H](N)C(=O)O` [Azaserine, azaserine] the “effect on trypanosome proliferation” value (T. brucei [1]) was “had no effect”.

With `Nc1cc[nH]c(=O)n1` [cytosine] the “rescue of trypanosomes from the proliferation block asserted by DON” value (T. brucei [1]) was “could not rescue” and the “size of the CTP pool after addition of cytidine or cytosine” value (T. brucei [2]) was “no change”.

In the case of `N[C@H](C(=O)O)[C@@H]1CC(Cl)=NO1` [acivicin], the “effect on trypanosome proliferation” value (T. brucei [1]) is reported as “very active”, the “GTP pool reduced by” value (T. brucei [2]; 1 h incubation with acivicin, not shown in the figure) is reported as 50% and the “effect on the CTP pool” value (T. brucei [2]) is reported as “lowered the CTP pool”.

With `Nc1ccn([C@@H]2O[C@H](CO)[C@@H](O)[C@H]2O)c(=O)n1` [Cytidine, cytidine] the “effect on the DON concentration needed for a proliferation block” value (mouse BALB/c fibroblasts; cytidine added instead of hypoxanthine) was “had no such effect”, the “rescue of trypanosomes from the proliferation block asserted by DON” value (T. brucei [1]) was “could not rescue” and the “size of the CTP pool after addition of cytidine or cytosine” value (T. brucei [2]) was “no change”.

In the case of `O=c1[nH]cnc2nc[nH]c12` [Hypoxanthine, hypoxanthine], the “crossing of the blood-brain barrier” value [3] is listed as “known to cross the blood-brain barrier”.

In the case of `[N-]=[N+]=CC(=O)CC[C@H](N)C(=O)O` [DON, 6-diazo-5-oxo-L-norleucine], the “DON concentration needed to inhibit proliferation relative to without hypoxanthine” value (mouse BALB/c fibroblasts; in the presence of 160 μM hypoxanthine) is reported as “around 20 times”, the “antiproliferative effect of DON” value (mouse BALB/c fibroblasts; with 10 μM hypoxanthine (consumed during the experiment)) is reported as “still high” and the “DON concentration needed for a proliferation block” value (mouse BALB/c fibroblasts; with addition of hypoxanthine) is reported as “more than 20 μM”. The “DON concentration for maximal inhibition / total block of proliferation” value (mouse BALB/c fibroblasts; without purines (hypoxanthine) in the culture medium, 72 h) was 1 to 2 µM, the IC50 [4] was 430 nM and the IC50 (Plasmodium falciparum; KI isolate) was 520 nM. For the same molecule, the IC50 (Plasmodium falciparum; NF54 isolate) was 360 nM, the half-life [5] was “a few hours” and the “effect on trypanosome proliferation” value (T. brucei [1]) was “very active”. The “concentration that completely blocked trypanosome proliferation” value (T. brucei [1]; cultured trypanosomes, 160 μM hypoxanthine in medium) was 1 µM, the “effect on the CTP pool” value (T. brucei [2]) was “selectively lowered the CTP level; also recorded: lowered the CTP pool” and the “effect on the UTP, ATP or GTP (purine NTP) levels” value (T. brucei [2]; DON-treated T. brucei) was “without affecting the UTP, ATP or GTP levels; also recorded: did not alter the purine NTP pools”.
